The subject of one assay is K. pneumoniae. The format is cell-based, Klebsiella pneumoniae. The procedure:
(§1) Apart from Streptococcus pneumonia, the antimicrobial peptides are also tested for antimicrobial activity against eight common bacterial pathogens of both gram-types as shown in Table 2. […] Testing against the gram-negative Acinetobacter baumannii (31.25 μg/ml) and Citrobacter spp.

The next assay has as its system Streptococcus pneumoniae. As to the kind of experiment: MIC by broth microdilution against all 60 pneumococcal isolates (overall). Type of assay: cell-based. The source says: (§2) The antimicrobial peptides are thereafter tested using broth microdilution assay 5×10^5 cfu/ml against a total of 60 pneumococcal isolates (20 isolates for each penicillin-susceptible, -intermediate, and -resistant pneumococci) to determine their minimum inhibitory concentration (MIC).
Background: Broth dilution looks for growth in wells or tubes with falling amounts of substance.

In the next assay the test system is S. aureus. Type of assay: cell-based, Staphylococcus aureus. The procedure: as §1
For assay [1], the system named is eight common bacterial pathogens of both gram-types. The format is cell-based. The method, then:
as §1

The next assay relates to Citrobacter spp. The format is cell-based. The procedure: as §1
A further assay concerns A. baumannii. The format is cell-based, Acinetobacter baumannii. The method, then: as §1
The next assay relates to E. coli. The format is cell-based, Escherichia coli. The method, then: as §1
The test system of assay [2] is penicillin-resistant pneumococci.
From the text: as §2

In assay [3] the test system is penicilin-susceptible pneumococci.
From the text: as §2

The test system of assay [4] is penicilin-intermediate pneumococci.
From the text: as §2

A further assay concerns E. cloacae. The method, then:
as §1

Another assay relates to bacterial pathogens. The assay can be described thus: Spectrum of antibacterial activity (summary in words). The format is cell-based. The settings on record: against Streptococcus pneumoniae, Acinetobacter baumannii, Staphylococcus aureus, methicillin-resistant Staphylococcus aureus, Escherichia coli, Citrobacter spp.
The subject of a further assay is P. aeruginosa. The format is cell-based, Pseudomonas aeruginosa. The method, then:
as §1

Where [5] appears, read: Pseudomonas aeruginosa, Enterococcus cloacae, Klebsiella pneumoniae.
Setting [6] is: Pseudomonas aeruginosa, Enterococcus cloacae.

Here are results for five substances from patent US8741852B2, “Peptides having antimicrobial activity” (Universiti Malaya, priority 2012, dated 2014).

Read-outs that look alike come from different tables or passages of the source. No end group written: not given here.

In general, MIC refers to the least concentration at which growth counts as inhibited. As for “GLFDIWAWWRWRR-NH2 (C-terminus assumed) [SEQ ID NO:2, Gly-Leu-Phe-Asp-Ile-Trp-Ala-Trp-Trp-Arg-Trp-Arg-Arg]”, the MIC with K. pneumoniae is over 250 µg/mL; with S. aureus it was 31.25 µg/mL; with Citrobacter spp. (Gram-negative) it was 62.5 µg/mL; with A. baumannii (Gram-negative), 31.25 µg/mL; in the assay on E. coli (Gram-negative), 250 µg/mL; against E. cloacae it was over 250 µg/mL. Moreover, the “Overall EP” value in the assay on Streptococcus pneumoniae was 100%. Further, in the assay on S. aureus, the “MIC level against Staphylococcus aureus as compared to methicillin-resistant Staphylococcus aureus” value is given as “two fold lower”. Also, the “activity against the other bacteria” value in assay [1] (bacteria of Table 2 other than S. aureus, MRSA, A. baumannii, Citrobacter spp., E. coli) was “non-active”. For the same substance, the “EP (effective percentage, isolates inhibited within the effective range)” value in assay [2], in [3] and in assay [4] was 100% each time. In addition, the “ER (effective range of minimum inhibitory concentration)” value lay in the range of 15.63 to 250 µg/mL in assay [2], 15.63 to 250 µg/mL in assay [3] and 7.81 to 250 µg/mL in assay [4]. For the same substance, the antimicrobial activity entry with bacterial pathogens is reported as “has antimicrobial activity”.
With “GLFDIWKKLRWRR-NH2 (C-terminus assumed) [SEQ ID NO:5, Gly-Leu-Phe-Asp-Ile-Trp-Lys-Lys-Leu-Arg-Trp-Arg-Arg]”, the MIC in the assay on K. pneumoniae was 250 µg/mL; with S. aureus it was 125 µg/mL; in the assay with Citrobacter spp. it was 31.25 µg/mL; against A. baumannii it was 31.25 µg/mL; in the assay with E. coli, 31.25 µg/mL; against E. cloacae it was 125 µg/mL. Besides, the MIC in the assay on P. aeruginosa is 31.25 µg/mL. Further, in the assay with Streptococcus pneumoniae, the “Overall EP” value was determined as 100%. Further, the “range of minimum inhibitory concentrations” value in assay [1] fell in the range of 31.25 to 125 µg/mL. Besides, the “EP (effective percentage, isolates inhibited within the effective range)” value in [2], in assay [3] and in assay [4] was 100% each time. Besides, the entries for the “ER (effective range of minimum inhibitory concentration)” value in [2], in assay [3] and in [4] were 31.25 to 125 µg/mL, 15.63 to 125 µg/mL and 15.63 to 125 µg/mL, respectively. Besides, the antimicrobial activity entry in the assay on bacterial pathogens (setting [5]) is “have antimicrobial activity”.
With “GLFDIWKKWRWRR-NH2 (C-terminus assumed) [SEQ ID NO:4, Gly-Leu-Phe-Asp-Ile-Trp-Lys-Lys-Trp-Arg-Trp-Arg-Arg]”, the “Overall EP” value in the assay on Streptococcus pneumoniae is given as 100%. The antimicrobial activity entry in the assay on bacterial pathogens (setting [6]) was “have antimicrobial activity”.
Take “GLFDIWKWWRWRR-NH2 (C-terminus assumed) [SEQ ID NO:3, Gly-Leu-Phe-Asp-Ile-Trp-Lys-Trp-Trp-Arg-Trp-Arg-Arg]”: the figures for the minimal inhibitory concentration (MIC) in the assay on K. pneumoniae, against Citrobacter spp. and in the assay with E. cloacae were 62.5 µg/mL, 15.63 µg/mL and 31.25 µg/mL, respectively. Besides, in the assay with Streptococcus pneumoniae, the “Overall EP” value is on record as 100%. Further, the “range of minimum inhibitory concentration” value in assay [1] fell in the range of 7.81 to 125 µg/mL. Moreover, the “EP (effective percentage, isolates inhibited within the effective range)” value in assay [2], in assay [3] and in assay [4] was 100% in each case. Further, the entries for the “ER (effective range of minimum inhibitory concentration)” value in [2], in assay [3] and in assay [4] were 15.63 to 62.5 µg/mL, 7.81 to 62.5 µg/mL and 7.81 to 250 µg/mL, respectively. For the same substance, the antimicrobial activity entry in the assay on bacterial pathogens (setting [5]) is reported as “have antimicrobial activity”.
For the substance “GLFDKWAWWRWRR-NH2 (C-terminus assumed) [SEQ ID NO:1, Gly-Leu-Phe-Asp-Lys-Trp-Ala-Trp-Trp-Arg-Trp-Arg-Arg]”, the “Overall EP” value with Streptococcus pneumoniae was determined as 100%. Besides, in the assay with bacterial pathogens (setting [6]), the antimicrobial activity entry is “have antimicrobial activity”.
